Reference: patent US10874106B2, “Method of regulating plant growth” (ROTAM AGROCHEM INTERNATIONAL COMPANY LIMITED, priority 2012, dated 2020)

How the values were obtained:
Format in all cases: in vivo
soybean plants = assay: Growth of young soybean plants treated with clomazone versus untreated plants
Description: (§1) Sugarcane plants are treated by the application of a commercially available concentrate formulation of clomazone (Centium 360 CS®; a suspension concentrate of microencapsulated clomazone at a concentration of 360 g/l). The concentrate formulation is dispersed in water and diluted, in a manner conventional in the art, to give an aqueous spray composition. The spray composition is applied to the sugarcane plants in an amount to apply clomazone at a rate of 120 g/hectare.
Young soybean plants are treated in an analogous manner to that described in Example 1.
The growth of the soybean plants is monitored and compared with the growth of soybean plants of the same age and grown under the same conditions, but without treatment with clomazone.

rice plants = assay: Growth of young rice plants treated with clomazone versus untreated plants
Description: as §1
Young rice plants are treated in an analogous manner to that described in Example 1.
The growth of the rice plants is monitored and compared with the growth of rice plants of the same age and grown under the same conditions, but without treatment with clomazone.

potato plants = assay: Growth of young potato plants treated with clomazone versus untreated plants
Description: as §1
Young potato plants are treated in an analogous manner to that described in Example 1.
The growth of the potato plants is monitored and compared with the growth of potato plants of the same age and grown under the same conditions, but without treatment with clomazone.

oilseed rape plants = assay: Growth of young oilseed rape plants treated with clomazone versus untreated plants
Description: as §1
Young oilseed rape plants are treated in an analogous manner to that described in Example 1.
The growth of the oilseed rape plants is monitored and compared with the growth of oilseed rape plants of the same age and grown under the same conditions, but without treatment with clomazone.

sugarcane plants = assay: Growth of sugarcane plants treated with clomazone versus untreated plants
Description: as §1
The growth of the sugarcane plants is monitored and compared with the growth of sugarcane plants grown under the same conditions, but without treatment with clomazone.

[1] = treated analogously to Example 1
[2] = treated analogously to Example 1, versus untreated plants
[3] = clomazone 120 g/hectare spray, versus untreated plants

For `CC1(C)CON(Cc2ccccc2Cl)C1=O` [clomazone, 2-(2-chlorophenyl)methyl-4,4-dimethyl-3-isoxazolidinone], which “growth of the treated plants in comparison to the untreated plants” value (shortened to “growth of the treated plants”) (soybean plants; [1]) is on record?
The value was “significantly improved”.

What about the average height (soybean plants; [2]) of the same compound?
The average height was “greater”.

And the “average leaf blade area” value (soybean plants; [2])?
Its value is “larger”.

What about the shoot growth (soybean plants; [2]) of the same compound?
Its shoot growth is “increased”.

And the “growth of the treated plants” value (rice plants; [1])?
The value was “significantly improved”.

What about the average height (rice plants; [2]) of the same compound?
The average height was “greater”.

What about the “average leaf blade area” value (rice plants; [2]) of the same compound?
The value was “larger”.

What about the shoot growth (rice plants; [2]) of the same compound?
The shoot growth was “increased”.

And the “growth of the treated plants” value (potato plants; [1])?
The value was “significantly improved”.

What about the average height (potato plants; [2]) of the same compound?
Its average height is “greater”.

And the “average leaf blade area” value (potato plants; [2])?
Its value is “larger”.

What about the shoot growth (potato plants; [2]) of the same compound?
Its shoot growth is “increased”.

What about the “growth of the treated plants” value (oilseed rape plants; [1]) of the same compound?
Its value is “significantly improved”.

What about the average height (oilseed rape plants; [2]) of the same compound?
Its average height is “greater”.

What about the “average leaf blade area” value (oilseed rape plants; [2]) of the same compound?
The value was “larger”.

And the shoot growth (oilseed rape plants; [2])?
The shoot growth was “increased”.

And the “growth of the treated plants” value (sugarcane plants; Centium 360 CS diluted in water, sprayed, clomazone 120 g/hectare)?
Its value is “significantly improved”.

And the average height (sugarcane plants; [3])?
Its average height is “greater”.

What about the “average leaf blade area” value (sugarcane plants; [3]) of the same compound?
Its value is “larger”.

What about the shoot growth (sugarcane plants; [3]) of the same compound?
The shoot growth was “increased”.
